Key:
[1] = system: hiPSC-derived neural cells; experiment: Carbenoxolone neuroprotection from NMDA-induced neurotoxicity (MTT, ROS, poly caspase); assay type: cell-based, human
Method: (§1) The hiPSC-derived neural cells were tested to determine response to different drugs and small molecules. Neural cells were formed as described in Example 2. After differentiation, the derived neural cells were replated onto Geltrex-coated 96-well plate and treated with N-methyl-D-aspartate (NMDA) at 0, 0.05, 0.5, 1 mM to mimic general neural toxicity. Cells were tested to determine response to neural protective molecules. Carbenoxolone (Cx, Sigma) (Beraki, et al., A pharmacological screening approach for discovery of neuroprotective compounds in ischemic stroke, PLoS One, 8 (2013) e69233) was added at different doses (0, 10 µM, 50 µM) of Cx were added with 0.5 mM NMDA for the first 24 h. Then samples were washed with phosphate buffer and the same doses of Cx were added for another 24 h. The cells were then characterized by MTT, reactive oxygen species (ROS), and poly caspase assays.
(§2) Briefly, the replated neural cells were incubated with 5 mg/mL 3-(4,5-Dimethylthiazol-2-yl)-2,5-diphenyltetrazolium bromide (MTT, Sigma) solution. The absorbance was measured at 500 nm using a microplate reader (Biorad, Richmond, Calif.). Image-iT™ Live Green Reactive Oxygen Species Detection kit (Molecular Probes) was used to detect the intracellular ROS. Briefly, neural cells were seeded at 1×10^5/mL in 96-well plates (100 μL). After 3 days, the cells were rinsed with Hank's balanced salt solution and incubated with 25 μM carboxy-H2DCFDA for 30 min at 37° C. The samples were washed and measured under a fluorescence microplate reader using 488 nm excitation wavelength and 530 nm for emission (Bio-Tek, FLx800, Winoosk, Vt.). Image-iT™ Live Green Poly Caspase Detection kit (Molecular Probes) was used to detect the expression of caspases. The replated cells were incubated for one hour with the fluorescent inhibitor of caspases reagent and analyzed by a fluorescence microplate reader.

[2] = system: neuronal cells derived from hiPSK3 cells; experiment: MMP-2/-9 inhibitor effects: neurite density, MTT, cell counting; assay type: cell-based, human; settings: phase contrast, 1 μM
Method: Derived neural cells, as described above, were replated onto Geltrex-coated 96-well plate and treated with MMP inhibitors: ARP 100 (MMP-2 inhibitor), MMP-9 inhibitor I, or SB-3CT (MMP-2 and MMP-9 inhibitor) (all from Santa Cruz) at 1 μM.
The cells were then characterized by MTT, reactive oxygen species (ROS), and poly caspase assays. For some experiments, cell numbers were counted using hemocytometer after trypsin/EDTA dissociation.
as §2, with “Image-iT™ Live Green Poly Caspase Detection kit (Molecular Probes) was used to detect the expression of caspases.” left out

[3] = system: neural cells derived from human iPSK3 cells; experiment: Aβ1-42 oligomer-induced response in presence of GSK-3β inhibitor CHIR99021 (MTT, ROS, caspase); assay type: cell-based; settings: CH 10 μM with 1 μM Aβ1-42 oligomers, day 46 cells
Source text: The cells were subsequently characterized by MTT, ROS, and poly caspase assays (Yan, et al., Cryopreservation of embryonic stem cell-derived multicellular neural aggregates labeled with micron-sized particles of iron oxide for magnetic resonance imaging, Biotechnol Prog, 31 (2015) 510-521; Sart, et al., The microenvironment of embryoid bodies modulated the commitment to neural lineage post-cryopreservation, Tissue Eng Part C: Methods., 21 (2015) 356-366). To evaluate the influence of glycogen synthase kinase (GSK)-3p inhibitor, CHIR99021 (1 or 10 μM) was added to the cultures treated with 1 μM Aβ1-42 oligomers for three days and characterized.
as §2

hiPSK3-derived EBs = experiment: Neural patterning, immunocytochemistry marker quantification; assay type: cell-based, human; settings: day 42 cells, CHIR 3 μM added to purmorphamine/FGF-2/RA
Method: Cells were analyzed using phase contrast microscopy, as described in Example 1 or immunohistochemistry. […] After washing, the cells were incubated with the corresponding secondary antibody: Alexa Fluor® 488 goat anti-Mouse IgG, Alexa Fluor® 488 or 594 goat anti-Rabbit IgG, or Alexa Fluor® 594 donkey anti-goat IgG (Life Technologies). The samples were stained with Hoechst 33342 and visualized under a fluorescent microscope (Olympus IX70, Melville, N.Y.). The images from five independent fields (800-1000 cells) were analyzed using ImageJ software. The proportion of positive cells was calculated based on the intensity of marker of interest normalized to the nuclear intensity, indicating the relative expression among different conditions. A neuronal model was prepared using LDN/SB induction, as discussed in Example 2. Neural patterning of hiPSCs was tuned through treatment with cyclopamine (the antagonist of SHH signaling) or purmorphamine (the agonist of SHH signaling) (Stanton & Peng, Small-molecule modulators of the Sonic Hedgehog signaling pathway, Mol Biosyst, 6 (2010) 44-54). […] After 8 days, the cells were treated with different growth factor combinations: […] (3) FGF-2 (10 ng/mL) and cyclopamine (1 μM, Sigma). […]

[4] = system: hiPSC-derived neural cells; experiment: NMDA-induced neurotoxicity (MTT, ROS, poly caspase); assay type: cell-based, human
Method: as §1, §2

## CC1(C)[C@@H](OC(=O)CCC(=O)O)CC[C@]2(C)[C@H]3C(=O)C=C4[C@@H]5C[C@@](C)(C(=O)O)CC[C@]5(C)CC[C@@]4(C)[C@]3(C)CC[C@@H]12 [carbenoxolone, Carbenoxolone]
[1]; carbenoxolone 10 or 50 μM with 0.5 mM NMDA
  increase in MTT activity: 28-56%
[1]; carbenoxolone with 0.5 mM NMDA
  expression of ROS: reduced expression of ROS
[1]; carbenoxolone with 0.5 mM NMDA, all three groups
  caspase activity: decreased

## O=S(=O)(CC1CS1)c1ccc(Oc2ccccc2)cc1 (stereo not drawn) [SB-3CT]
[2]; Cyclo group (more cortical glutamatergic neurons)
  neurite density: little changes
[2]; Purmo group (more motor neurons)
  neurite density: reduction of neurite density

## Cc1c[nH]c(-c2cnc(NCCNc3ccc(C#N)cn3)nc2-c2ccc(Cl)cc2Cl)n1 [CHIR99021]
[3]
  ROS levels: reduced
  caspase levels: reduced
[3]; vs. groups without CH or with 1 μM CH
  increase of MTT activity: 25-45%
hiPSK3-derived EBs
  expression of ISL1 and HB9 (motor neuron differentiation): increased

## CN[C@H](CC(=O)O)C(=O)O [NMDA, N-methyl-D-aspartate]
[4]; NMDA 0-1 mM
  caspase activity: logarithmic relationship with NMDA concentration
  expression of ROS: increased logarithmically
[4]; NMDA 0.5 or 1 mM, all three groups (control, Purmo, Cyclo)
  reduction of MTT activity: 30-50%

Reference: patent US10323229B1, “Three-dimensional human stem cell-derived cortical spheroid model” (The Florida State University Research Foundation, Inc., priority 2015, dated 2019)
